In patent publication US8980934B2, “Kinase inhibitors and method of treating cancer with same” (University Health Network, priority 2012, dated 2015):

How the values were obtained:
Test in all cases: Cancer cell growth inhibition, Sulforhodamine B assay
Assay type in all cases: cell-based
[1] = tested on: HCT116 colon cancer cells; settings: Homo sapiens, HCT-116, 120 h; HCT116, 5 days culture, SRB; read-out: Cancer Cell Line GI50 Range HCT116
Procedure: (§1) Breast cancer cells (MDA-MB-231), colon cancer cells (HCT116) and ovarian cancer cells (PA-1) were seeded (1000 to 4000 in 80 μl per well depending on the cell growth rate) into 96 well plates 24 hours before compound overlay. Compounds were prepared as 10 mM stock solutions in 100% DMSO which were diluted with DMEM (Dulbecco's Modified Eagle's Medium) cell growth Medium (Invitrogen, Burlington, ON, Canada) containing 10% FBS (Fetal Bovine Serum) to concentrations ranging from 50 nM to 250 μM. Aliquots (20 μl) from each concentration were overlaid to 80 μl of the pre-seeded cells in the 96 well plates to make final concentrations of 10 nM to 50 μM. The cells were cultured for 5 days before the Sulforhodamine B assay (SRB) was performed to determine the compound's cell growth inhibition activity.
(§2) Sulforhodamine B (purchased from Sigma, Oakville, ON, Canada) is a water-soluble dye that binds to the basic amino acids of the cellular proteins. Thus, colorimetric measurement of the bound dye provides an estimate of the total protein mass that is related to the cell number. the cells are fixed in situ by gently aspirating off the culture media and adding 50 μl ice cold 10% Trichloroacetic Acid (TCA) per well and incubate at 4° C. for 30-60 min. The plates are washed with H2O five times and allowed to air dry for 5 min. Addition of 50 μl 0.4% (w/v) SRB solution in 1% (v/v) acetic acid to each well and incubatation for 30 min at RT completes the staining reaction. Following staining, plates are washed four times with 1% acetic acid to remove unbound dye and then allowed to air dry for 5 min. The stain is solubilized with 100 μl of 10 mM Tris pH 10.5 per well. Absorbance is read at 570 nm.
(§3) The percentage (%) of relative growth inhibition was calculated by comparing to DMSO treated only cells (100%). GI50's were determined for compounds with cytotoxic activity. The GI50 was calculated using GraphPad PRISM software (GraphPad Software, Inc., San Diego, Calif., USA). GI50 (growth inhibition) is the compound concentration that causes 50% inhibition of cell growth.
(§4) In Table 1 below, GI50 value ranges for several compound examples against breast cancer cell lines (MDA-MB-231), colon cancer cell lines (HCT116) and ovarian cancer cell lines (PA-1) are given. […] The GI50 ranges are indicated as “A,” “B,” and “C,” for values less than or equal to 0.1 μM; those greater than 0.1 μM and less than or equal to 0.5 μM; and those greater than 0.5 μM, respectively.

[2] = tested on: MDA-MB-231 breast cancer cells; settings: Homo sapiens, 120 h; MDA-MB-231, 5 days culture, SRB; read-out: Cancer Cell Line GI50 Range MDA-MB-231
Procedure: as §1, §2, §3, §4

[3] = tested on: PA-1 ovarian cancer cells; settings: 120 h; PA-1, 5 days culture, SRB; read-out: Cancer Cell Line GI50 Range PA-1
Procedure: as §1, §2, §3, §4

Row | SMILES | GI50 [1] | GI50 [2] | GI50 [3]
1 | CC(C)[C@H](NC(=O)c1ccc2[nH]nc(-c3ccc(N4CC5(CN(C)C5)C4)cc3)c2c1)c1ccccc1Cl [Example A28, (S)-N-(1-(2-Chlorophenyl)-2-methylpropyl)-3-(4-(6-methyl-2,6-diazaspiro[3.3]heptan-2-yl)phenyl)-1H-indazole-5-carboxamide] | ≤ 100 nM | ≤ 100 nM | ≤ 100 nM
2 | O=C(N[C@H](c1ccccn1)C1CC1)c1ccc2[nH]nc(-c3ccc(N4CC5(CCO5)C4)cc3)c2c1 [Example A21, (S)-3-(4-(1-Oxa-6-azaspiro[3.3]heptan-6-yl)phenyl)-N-(cyclopropyl(pyridin-2-yl)methyl)-1H-indazole-5-carboxamide] | ≤ 100 nM | ≤ 100 nM | ≤ 100 nM
3 | CC(C)C[C@H](NC(=O)c1ccc2[nH]nc(-c3ccc(N4CCC45COC5)cc3)c2c1)c1ccccn1 [Example A35, (S)-3-(4-(6-Oxa-1-azaspiro[3.3]heptan-1-yl)phenyl)-N-(3-methyl-1-(pyridin-2-yl)butyl)-1H-indazole-5-carboxamide] | 100 to 500 nM | 100 to 500 nM | 100 to 500 nM
4 | O=C(N[C@H](c1ccccn1)C1CCCC1)c1ccc2[nH]nc(-c3ccc(N4CC5(CC(O)C5)C4)cc3)c2c1 [Example A33, (S)-N-(Cyclopentyl(pyridin-2-yl)methyl)-3-(4-(6-hydroxy-2-azaspiro[3.3]heptan-2-yl)phenyl)-1H-indazole-5-carboxamide] | ≤ 100 nM | ≤ 100 nM | ≤ 100 nM
5 | O=C(N[C@@H](c1ccccn1)C1CC1)c1ccc2[nH]nc(-c3ccc(N4CC5(CCO5)C4)cc3)c2c1 [Example A22, (R)-3-(4-(1-Oxa-6-azaspiro[3.3]heptan-6-yl)phenyl)-N-(cyclopropyl(pyridin-2-yl)methyl)-1H-indazole-5-carboxamide] | ≤ 100 nM | ≤ 100 nM | ≤ 100 nM
6 | O=C(N[C@H](c1ccccn1)C1CCCC1)c1ccc2[nH]nc(-c3ccc(N4CCC45COC5)cc3)c2c1 [Example A34, (S)-3-(4-(6-Oxa-1-azaspiro[3.3]heptan-1-yl)phenyl)-N-(cyclopentyl(pyridin-2-yl)methyl)-1H-indazole-5-carboxamide] | 100 to 500 nM | 100 to 500 nM | 100 to 500 nM
7 | CC(C)[C@@H](NC(=O)c1ccc2[nH]nc(-c3ccc(N4CC5(COC5)C4)cc3)c2c1)c1ccccc1Cl [Example A13, 3-(4-(2-Oxa-6-azaspiro[3.3]heptan-6-yl)phenyl)-N-((R)-1-(2-chlorophenyl)-2-methylpropyl)-1H-indazole-5-carboxamide] | ≤ 100 nM | 100 to 500 nM | ≤ 100 nM
8 | O=C(N[C@@H](c1ncccn1)C1CCCC1)c1ccc2[nH]nc(-c3ccc(N4CCC45COC5)cc3)c2c1 [Example A37, (R)-3-(4-(6-oxa-1-azaspiro[3.3]heptan-1-yl)phenyl)-N-(cyclopentyl(pyrimidin-2-yl)methyl)-1H-indazole-5-carboxamide] | ≤ 100 nM | ≤ 100 nM | ≤ 100 nM
9 | CN1CC2(C1)CN(c1ccc(-c3n[nH]c4ccc(C(=O)N[C@H](c5ccccc5)C5CC5)cc34)cc1)C2 [Example A29, (S)-N-(Cyclopropyl(phenyl)methyl)-3-(4-(6-methyl-2,6-diazaspiro[3.3]heptan-2-yl)phenyl)-1H-indazole-5-carboxamide] | ≤ 100 nM | ≤ 100 nM | ≤ 100 nM
10 | O=C(N[C@H](c1ncccn1)C1CCCC1)c1ccc2[nH]nc(-c3ccc(N4CC5(COC5)C4)cc3)c2c1 [Example A25, (S)-3-(4-(2-oxa-6-azaspiro[3.3]heptan-6-yl)phenyl)-N-(cyclopentyl(pyrimidin-2-yl)methyl)-1H-indazole-5-carboxamide] | ≤ 100 nM | ≤ 100 nM | ≤ 100 nM
11 | CC(C)C[C@H](NC(=O)c1ccc2[nH]nc(-c3ccc(N4CC5(COC5)C4)cc3)c2c1)c1ccccn1 [Example A27, (S)-3-(4-(2-oxa-6-azaspiro[3.3]heptan-6-yl)phenyl)-N-(3-methyl-1-(pyridin-2-yl)butyl)-1H-indazole-5-carboxamide] | ≤ 100 nM | ≤ 100 nM | ≤ 100 nM
12 | O=C(NC(c1ccccn1)C1CC1)c1ccc2[nH]nc(-c3ccc(N4CCC5(COC5)C4)cc3)c2c1 (stereo not drawn) [Example A16, 3-(4-(2-Oxa-6-azaspiro[3.4]octan-6-yl)phenyl)-N-(cyclopropyl(pyridin-2-yl)methyl)-1H-indazole-5-carboxamide] | 100 to 500 nM | 100 to 500 nM | 100 to 500 nM
13 | O=C(N[C@@H](c1ncccn1)C1CCCC1)c1ccc2[nH]nc(-c3ccc(N4CC5(COC5)C4)cc3)c2c1 [Example A26, (R)-3-(4-(2-oxa-6-azaspiro[3.3]heptan-6-yl)phenyl)-N-(cyclopentyl(pyrimidin-2-yl)methyl)-1H-indazole-5-carboxamide] | ≤ 100 nM | ≤ 100 nM | ≤ 100 nM
14 | O=C(NC(c1nccs1)C1CC1)c1ccc2[nH]nc(-c3ccc(N4CC5(COC5)C4)cc3)c2c1 (stereo not drawn) [Example A14, 3-(4-(2-Oxa-6-azaspiro[3.3]heptan-6-yl)phenyl)-N-(cyclopropyl(thiazol-2-yl)methyl)-1H-indazole-5-carboxamide] | ≤ 100 nM | ≤ 100 nM | ≤ 100 nM
15 | O=C(N[C@H](c1ccccc1)C1CC1)c1ccc2[nH]nc(-c3ccc(N4CC5(CCOCC5)C4)cc3)c2c1 [Example A17, (S)-3-(4-(7-Oxa-2-azaspiro[3.5]nonan-2-yl)phenyl)-N-(cyclopropyl(phenyl)methyl)-1H-indazole-5-carboxamide] | 100 to 500 nM | 100 to 500 nM | 100 to 500 nM
16 | O=C(N[C@@H](c1ccsc1)C1CCCC1)c1ccc2[nH]nc(-c3ccc(N4CC5(COC5)C4)cc3)c2c1 [Example A9, 3-(4-(2-Oxa-6-azaspiro[3.3]heptan-6-yl)phenyl)-N-((R)-cyclopentyl(thiophen-3-yl)methyl)-1H-indazole-5-carboxamide] | 100 to 500 nM | > 500 nM | 100 to 500 nM
17 | CC(C)[C@H](NC(=O)c1ccc2[nH]nc(-c3ccc(N4CC5(C4)CN(C4COC4)C5)cc3)c2c1)c1ccccc1Cl [Example A30, (S)-N-(1-(2-Chlorophenyl)-2-methylpropyl)-3-(4-(6-(oxetan-3-yl)-2,6-diazaspiro[3.3]heptan-2-yl)phenyl)-1H-indazole-5-carboxamide] | ≤ 100 nM | ≤ 100 nM | ≤ 100 nM
18 | O=C(N[C@H](c1ccccn1)C1CCCC1)c1ccc2[nH]nc(-c3ccc(N4CC5(C4)CN(C4COC4)C5)cc3)c2c1 [Example A31, (S)-N-(Cyclopentyl(pyridin-2-yl)methyl)-3-(4-(6-(oxetan-3-yl)-2,6-diazaspiro[3.3]heptan-2-yl)phenyl)-1H-indazole-5-carboxamide] | ≤ 100 nM | ≤ 100 nM | ≤ 100 nM
